Each structure is given as a SMILES string. Some results are limits rather than exact numbers.

These results are taken from patent EP4617278A1, “NUCLEOTIDE ANALOG, AND COMPOSITION AND USE THEREOF” (priority 2022, dated 2024).

This experiment deals with RSV A2 virus. As to the kind of experiment: RSV CPE assay. As to conditions: human respiratory syncytial virus, HEp-2, 120 h, read-out: RSV A2 (Hep-2 cell) EC50.
The EC50 is the concentration that produces a half-maximal response. Consider `CC(C)C(=O)OCOP(=O)(OC[C@H]1O[C@@](C#N)(c2ccc3c(N)ncnn23)[C@H](OC(=O)C(C)C)[C@@H]1OC(=O)C(C)C)Oc1ccc(C(C)(C)C)cc1` (mixture of isomers) [Compound 26, (2R,3R,4R,5R)-2-(4-aminopyrrolo[2,1-f][1,2,4]triazin-7-yl)-5-((((4-tert-butylphenoxy)((isobutyryloxy)methoxy)phosphoryl)oxy)methyl)-2-cyanotetrahydrofuran-3,4-diyl bis(2-methylpropionate)], for which the EC50 is over 1000 nM.

Take `CC(C)C(=O)O[C@H]1[C@@H](OC(=O)C(C)C)[C@](C#N)(c2ccc3c(N)ncnn23)O[C@@H]1COP(=O)(OCCSC(=O)C(C)(C)C)Oc1ccc(C(C)(C)C)cc1` (mixture of isomers) [Compound 27, (2R,3R,4R,5R)-2-(4-aminopyrrolo[2,1-f][1,2,4]triazin-7-yl)-5-((((4-tert-butylphenoxy)(2-(pivaloylthio)ethoxy)phosphoryl)oxy)methyl)-2-cyanotetrahydrofuran-3,4-diyl bis(2-methylpropionate)]: the EC50 is 200 to 500 nM.

For the compound `CC(C)OC(=O)OCO[P@@](=O)(N[C@@H](C)C(=O)OC(C)C)OC[C@H]1O[C@@](C#N)(c2ccc3c(N)ncnn23)[C@H](OC(=O)C(C)C)[C@@H]1OC(=O)C(C)C` [Compound 3a, (2R,3R,4R,5R)-2-(4-aminopyrrolo[2,1-f][1,2,4]triazin-7-yl)-2-cyano-5-((((R)-(((S)-1-isopropoxy-1-oxopropan-2-yl)amino)(((isopropoxycarbonyl)oxy)methoxy)phosphoryl)oxy)methyl)tetrahydrofuran-3,4-diyl bis(2-methylpropionate)], the EC50 was in the range of 200 to 500 nM.

`CC(C)OC(=O)OCO[P@](=O)(N[C@@H](C)C(=O)OC(C)C)OC[C@H]1O[C@@](C#N)(c2ccc3c(N)ncnn23)[C@H](OC(=O)C(C)C)[C@@H]1OC(=O)C(C)C` [Compound 3b, (2R,3R,4R,5R)-2-(4-aminopyrrolo[2,1-f][1,2,4]triazin-7-yl)-2-cyano-5-((((S)-(((S)-1-isopropoxy-1-oxopropan-2-yl)amino)(((isopropoxycarbonyl)oxy)methoxy)phosphoryl)oxy)methyl)tetrahydrofuran-3,4-diyl bis(2-methylpropionate)]: the EC50 is 100 to 200 nM.

For the compound `CCC(CC)COC(=O)[C@H](C)N[P@](=O)(OCOC(=O)OC(C)C)OC[C@H]1O[C@@](C#N)(c2ccc3c(N)ncnn23)[C@H](OC(=O)C(C)C)[C@@H]1OC(=O)C(C)C` [Compound 7a, (2R,3R,4R,5R)-2-(4-aminopyrrolo[2,1-f][1,2,4]triazin-7-yl)-2-cyano-5-((((R)-(((S)-1-(2-ethylbutoxy)-1-oxopropan-2-yl)amino)(((isopropoxycarbonyl)oxy)methoxy)phosphoryl)oxy)methyl)tetrahydrofuran-3,4-diyl bis(2-methylpropionate)], the EC50 lay within 200 to 500 nM.

`CCC(CC)COC(=O)[C@H](C)N[P@@](=O)(OCOC(=O)OC(C)C)OC[C@H]1O[C@@](C#N)(c2ccc3c(N)ncnn23)[C@H](OC(=O)C(C)C)[C@@H]1OC(=O)C(C)C` [Compound 7b, (2R,3R,4R,5R)-2-(4-aminopyrrolo[2,1-f][1,2,4]triazin-7-yl)-2-cyano-5-((((S)-(((S)-1-(2-ethylbutoxy)-1-oxopropan-2-yl)amino)(((isopropoxycarbonyl)oxy)methoxy)phosphoryl)oxy)methyl)tetrahydrofuran-3,4-diyl bis(2-methylpropionate)]: the EC50 lay within 100 to 200 nM.

With `CCC(CC)COC(=O)[C@H](C)N[P@@](=O)(OCOC(=O)C(C)(C)C)OC[C@H]1O[C@@](C#N)(c2ccc3c(N)ncnn23)[C@H](OC(=O)C(C)C)[C@@H]1OC(=O)C(C)C` [Compound 11b, (2R,3R,4R,5R)-2-(4-aminopyrrolo[2,1-f][1,2,4]triazin-7-yl)-2-cyano-5-((((S)-(((S)-1-(2-ethylbutoxy)-1-oxopropan-2-yl)amino)((pivaloyloxy)methoxy)phosphoryl)oxy)methyl)tetrahydrofuran-3,4-diyl bis(2-methylpropionate)], the EC50 fell in the range of 200 to 500 nM.

For `CC(C)OC(=O)OCO[P@](=O)(N[C@@H](C)C(=O)OC1CCC1)OC[C@H]1O[C@@](C#N)(c2ccc3c(N)ncnn23)[C@H](OC(=O)C(C)C)[C@@H]1OC(=O)C(C)C` [Compound 13b, (2R,3R,4R,5R)-2-(4-aminopyrrolo[2,1-f][1,2,4]triazin-7-yl)-2-cyano-5-((((S)-(((S)-1-cyclobutoxy-1-oxopropan-2-yl)amino)(((isopropoxycarbonyl)oxy)methoxy)phosphoryl)oxy)methyl)tetrahydrofuran-3,4-diyl bis(2-methylpropionate)], the EC50 fell in the range of 200 to 500 nM.

With `CC(=O)O[C@H]1[C@@H](OC(C)=O)[C@](C#N)(c2ccc3c(N)ncnn23)O[C@@H]1COP(=O)(OCOC(=O)OC(C)C)OCOC(=O)OC(C)C` [Compound 17, (2R,3R,4R,5R)-2-(4-aminopyrrolo[2,1-f][1,2,4]triazin-7-yl)-5-((((bis(((isopropoxycarbonyl)oxy)methoxy)phosphoryl))oxy)methyl)-2-cyanotetrahydrofuran-3,4-diyl diacetate], the EC50 was 100 to 200 nM.

In the case of `CC(C)OC(=O)OCOP(=O)(OCOC(=O)OC(C)C)OC[C@H]1O[C@@](C#N)(c2ccc3c(N)ncnn23)[C@H](OC(=O)C(C)C)[C@@H]1OC(=O)C(C)C` [Compound 19, (2R,3R,4R,5R)-2-(4-aminopyrrolo[2,1-f][1,2,4]triazin-7-yl)-5-((((bis(((isopropoxycarbonyl)oxy)methoxy))phosphoryl)oxy)methyl)-2-cyanotetrahydrofuran-3,4-diyl bis(2-methylpropionate)], the EC50 was in the range of 200 to 500 nM.

Consider `CC(C)OC(=O)OCOP(=O)(OCOC(=O)OC(C)C)OC[C@H]1O[C@@](C#N)(c2ccc3c(N)ncnn23)[C@H](OC(=O)C(C)(C)C)[C@@H]1OC(=O)C(C)(C)C` [Compound 20, (2R,3R,4R,5R)-2-(4-aminopyrrolo[2,1-f][1,2,4]triazin-7-yl)-5-((((bis(((isopropoxycarbonyl)oxy)methoxy))phosphoryl)oxy)methyl)-2-cyanotetrahydrofuran-3,4-diyl bis(2,2-dimethylpropionate)], for which the EC50 is over 1000 nM.

Regarding `CC(C)OC(=O)OCO[P@@](=O)(OC[C@H]1O[C@@](C#N)(c2ccc3c(N)ncnn23)[C@H](OC(=O)C(C)C)[C@@H]1OC(=O)C(C)C)Oc1ccc(C(C)(C)C)cc1` [Compound 24a, (2R,3R,4R,5R)-2-(4-aminopyrrolo[2,1-f][1,2,4]triazin-7-yl)-5-((((S)-(4-tert-butylphenoxy)(((isopropoxycarbonyl)oxy)methoxy)phosphoryl)oxy)methyl)-2-cyanotetrahydrofuran-3,4-diyl bis(2-methylpropionate)], the EC50 was over 1000 nM.

For the compound `CC(C)C(=O)O[C@H]1[C@@H](OC(=O)C(C)C)[C@](C#N)(c2ccc3c(N)ncnn23)O[C@@H]1COP(=O)(OCOC(=O)C(C)(C)C)OCOC(=O)C(C)(C)C` [Compound 29, (2R,3R,4R,5R)-2-(4-aminopyrrolo[2,1-f][1,2,4]triazin-7-yl)-5-((((bis(((tert-butylcarbonyl)oxy)methoxy))phosphoryl)oxy)methyl)-2-cyanotetrahydrofuran-3,4-diyl bis(2-methylpropionate)], the EC50 was in the range of 500 to 1000 nM.
